Assay results: paper PMC8126888 (RSC Medicinal Chemistry, 2020)
Converted amounts (≈) assume the structure as drawn. Where two headings read alike, the source gives them in different places.

Key:
[1] = tested on: primary peritoneal mouse macrophages (PMM); experiment: cells; conditions: Macrophage, read-out: PMM IC50
in vitro [2] = conditions: human, microsomes, pH 7.4, HLM CLint, human liver microsomes
in vitro [3] = conditions: mouse, microsomes, pH 7.4, MLM CLint, mouse liver microsomes
physchem [4] = conditions: PBS, pH 7.4, aqueous buffer, kinetic from dmso stock
in vitro [5] = conditions: human, THP-1 cells differentiated with PMA
in vitro [6] = conditions: human
in vitro [7] = conditions: human, HepG2 cells
[8] = tested on: Leishmania infantum MHOM/MA(BE)/67/ITMAP263 intracellular amastigotes; experiment: microbe, parasite or virus in culture; conditions: Macrophage, in Mus musculus
[9] = tested on: axenic L. don. amastigotes (MHOM/SD/62/1S-CL2, LdBOB); experiment: microbe, parasite or virus in culture; conditions: Leishmania donovani, read-out: L. donovani MHOM/SD/62/1SCL2D axenic-cidal amastigotes IC50
[10] = tested on: Trypanosoma cruzi, Tulahuen CL2, beta-galactosidase strain; experiment: microbe, parasite or virus in culture; conditions: MRC5, read-out: T. cruzi Tulahuen C4 (LacZ) IC50
[11] = tested on: L. donovani MHOM/SD/62/1SCL2D intracellular amastigotes; experiment: microbe, parasite or virus in culture; conditions: Leishmania donovani, read-out: L. donovani MHOM/SD/62/1SCL2D intracellular amastigotes IC50
physchem [12] = conditions: HPLC, Ascentis Express RP Amide column, pH 7.4, eLogD, experimental
in vitro [13] = conditions: human, HFF-1 cells
in vitro [14] = conditions: human, HepG2 cells; remark: listed apart in the source
in vitro [15] = conditions: PAMPA
[16] = tested on: Leishmania infantum (MHOM/MA/67/ITMAP-263) intracellular amastigotes in THP-1; experiment: microbe, parasite or virus in culture; conditions: THP-1, read-out: L. infantum MHOM/MA/67/ITMAP263 intracellular amastigotes THP-1 cells IC50
in vitro [17] = conditions: human, HFF-1 cells; remark: listed apart in the source
in vitro [18] = conditions: human, HepG2 cells; remark: listed apart in the source
in vitro [19] = conditions: PAMPA; remark: listed apart in the source
[20] = tested on: L. infantum MHOM/MA/67/ITMAP263 axenic Promastigotes; experiment: microbe, parasite or virus in culture; conditions: Leishmania infantum, read-out: L. infantum MHOM/MA/67/ITMAP263 axenic Promastigotes IC50
[21] = read-out: L. Inf. pIC50, L. infantum intracellular amastigotes (converted)
[22] = read-out: L. infantum MHOM/MA(BE)/67/ITMAP263 intracellular amastigotes IC50, intracellular amastigotes
[23] = read-out: L. Inf. pIC50, from L. infantum intracellular amastigote IC50 (converted)

CCCCCOc1cc(C)c(C)cc1S(=O)(=O)NC1CCCC1 [DNDI0002550647]
KS PBS - pH 2: 0.74 ug/mL | IC50 [1]: 45.2 µM | microsomal CLint at 0.5 μM (in vitro [2]): 567 µL/min/mg | microsomal CLint at 0.5 μM (in vitro [3]): 416 µL/min/mg | solubility kinetic (physchem [4]): 0.56 µg/mL (≈ 1.65 µM) | CC50 at 120 h (in vitro [5]): > 50 µM | CC50 at 3 days (in vitro [6]): 37 µM | CC50 (in vitro [7]): > 50 µM | IC50 ([8]; read-out: L. Inf. pIC50 (converted)): 1.05 µM | IC50 ([8]; read-out: L. infantum MHOM/MA(BE)/67/ITMAP263 intracellular amastigotes IC50): 1.05 µM | IC50 [9]: 12 µM | IC50 [10]: 7.86 µM | IC50 [11]: 13 µM

COc1ccc([S+](C)[O-])cc1S(=O)(=O)N(Cc1ccccc1)Cc1ccccc1 (centres unmarked) [DNDI0003578382]
IC50 [1]: > 64 µM | microsomal CLint at 0.5 μM (in vitro [2]): 125 µL/min/mg | microsomal CLint at 0.5 μM (in vitro [3]): 397 µL/min/mg | chromatographic logD (physchem [12]): 3.6 | CC50 at 120 h (in vitro [5]): > 64 µM | CC50 at 3 days (in vitro [6]): 21.3 µM | CC50 (in vitro [13]): > 64 µM | CC50 (in vitro [14]): > 64 µM | Papp (in vitro [15]): 14 ×10⁻⁶ cm/s | IC50 [8, 21]: 0.589 µM | IC50 [8, 22]: 0.59 µM | IC50 [16]: 11.5 µM | IC50 [10]: 16.9 µM

COCCN(Cc1ccccc1)S(=O)(=O)c1c(OC)ccc(Cl)c1S(C)(=O)=O [DNDI0003578381]
IC50 [1]: > 64 µM | microsomal CLint at 0.5 μM (in vitro [2]): 51 µL/min/mg | microsomal CLint at 0.5 μM (in vitro [3]): 176 µL/min/mg | chromatographic logD (physchem [12]): 2.6 | CC50 at 120 h (in vitro [5]): > 64 µM | CC50 at 3 days (in vitro [6]): > 64 µM | CC50 (in vitro [13]): > 64 µM | CC50 (in vitro [14]): > 64 µM | Papp (in vitro [15]): 14.6 ×10⁻⁶ cm/s | IC50 [8, 21]: 51.3 µM | IC50 [8, 22]: 50.8 µM | IC50 [16]: > 64 µM | IC50 [10]: > 64 µM

C[S+]([O-])c1c(Cl)ccc2c1S(=O)(=O)N(Cc1ccccc1)CCO2 (centres unmarked) [DNDI0003578383]
IC50 [1]: > 64 µM | microsomal CLint at 0.5 μM (in vitro [2]): 33 µL/min/mg | microsomal CLint at 0.5 μM (in vitro [3]): 423 µL/min/mg | chromatographic logD (physchem [12]): 3 | CC50 at 120 h (in vitro [5]): > 64 µM | CC50 at 3 days (in vitro [6]): > 64 µM | CC50 (in vitro [13]): > 64 µM | CC50 (in vitro [14]): > 64 µM | Papp (in vitro [15]): 22 ×10⁻⁶ cm/s | IC50 [8, 21]: 47.9 µM | IC50 [8, 22]: 47.9 µM | IC50 [16]: > 64 µM | IC50 [10]: 29.3 µM

COCCN(Cc1ccccc1)S(=O)(=O)c1c(OC)ccc(Cl)c1[S+](C)[O-] (centres unmarked) [DNDI0003578380]
IC50 [1]: > 64 µM | microsomal CLint at 0.5 μM (in vitro [2]): 85 µL/min/mg | microsomal CLint at 0.5 μM (in vitro [3]): 286 µL/min/mg | chromatographic logD (physchem [12]): 2.9 | CC50 at 120 h (in vitro [5]): > 64 µM | CC50 at 3 days (in vitro [6]): > 64 µM | CC50 (in vitro [13]): > 64 µM | CC50 (in vitro [14]): > 64 µM | Papp (in vitro [15]): 17.6 ×10⁻⁶ cm/s | IC50 [8, 21]: 26.9 µM | IC50 [8, 22]: 26.7 µM | IC50 [16]: > 64 µM | IC50 [10]: > 64 µM

O=C1c2ccccc2S(=O)(=O)N(Cc2ccccc2)C1Cc1ccccc1 (centres unmarked) [DNDI0003370098]
IC50 [1]: > 64 µM | microsomal CLint at 0.5 μM (in vitro [2]): 141 µL/min/mg | microsomal CLint at 0.5 μM (in vitro [3]): 1060 µL/min/mg | chromatographic logD (physchem [12]): 3.6 | CC50 at 3 days (in vitro [6]): 30.8 µM | CC50 (in vitro [17]): > 64 µM | CC50 (in vitro [18]): > 64 µM | Papp (in vitro [19]): 4.11 ×10⁻⁶ cm/s | IC50 [8, 23]: 11.7 µM | IC50 [8, 22]: 11.7 µM | IC50 [10]: 9.38 µM | IC50 [20]: > 64 µM

COc1ccc(Cl)cc1S(=O)(=O)N(Cc1ccccc1)C(Cc1ccccc1)C(N)=O (centres unmarked) [DNDI0003370116]
IC50 [1]: 32 µM | microsomal CLint at 0.5 μM (in vitro [2]): 752 µL/min/mg | microsomal CLint at 0.5 μM (in vitro [3]): 801 µL/min/mg | chromatographic logD (physchem [12]): 4.2 | CC50 at 3 days (in vitro [6]): 9.62 µM | CC50 (in vitro [17]): 37.5 µM | CC50 (in vitro [18]): 39 µM | Papp (in vitro [19]): 5.17 ×10⁻⁶ cm/s | IC50 [8, 23]: 4.68 µM | IC50 [8, 22]: 4.73 µM | IC50 [10]: 5.3 µM | IC50 [20]: 30.4 µM

COc1ccc(OC)c(S(=O)(=O)N(Cc2ccc(F)cc2)c2ccc(F)cn2)c1 [DNDI0003370085]
IC50 [1]: > 64 µM | microsomal CLint at 0.5 μM (in vitro [2]): 230 µL/min/mg | microsomal CLint at 0.5 μM (in vitro [3]): 1990 µL/min/mg | chromatographic logD (physchem [12]): 3.5 | CC50 at 3 days (in vitro [6]): > 64 µM | CC50 (in vitro [17]): 15 µM | CC50 (in vitro [18]): 16.4 µM | Papp (in vitro [19]): 7.1 ×10⁻⁶ cm/s | IC50 [8, 23]: 41.7 µM | IC50 [8, 22]: 41.9 µM | IC50 [10]: 5.17 µM | IC50 [20]: 33 µM
